Counter-ions that a name gives are not always drawn. Like-named read-outs stand apart in the source and are kept apart here.
What was measured:
Type in all cases: cell-based
[1] = test system: DU145 (human prostate cancer cells); assay: Anti-proliferative activity on DU145 cell line (WST1 colorimetric test); settings: DU-145, treated for 96 hours, read-out: IC50 on the cell proliferation of the DU145 lines
Procedure: (§1) By way of example, the effect of a treatment on three human cell lines DU145, LNCaP and A2058 with the compounds of the examples described previously will be studied. The cell lines DU145 and LNCaP (human prostate cancer cells) and A2058 (human melanoma cancer cells) were acquired from the American Tissue Culture Collection (Rockville, Md., USA). The cells placed in 80 μl of Dulbecco's Modified Eagle medium (Gibco-Brl, Cergy-Pontoise, France) completed with 10% foetal calf serum inactivated by heating (Gibco-Brl, Cergy-Pontoise, France), 50000 units/l of penicillin and 50 mg/l streptomycin (Gibco-Brl, Cergy-Pontoise, France), and 2 mM of glutamin (Gibco-Brl, Cergy-Pontoise, France) were seeded on a 96-well plate on day 0. The cells were treated on day 1 for 96 hours with increasing concentrations of each of the compounds to be tested up to 10 μM. At the end of this period, the quantification of the cell proliferation is evaluated by a colorimetric test based on the cleavage of the tetrazolium salt WST1 by mitochondrial dehydrogenases in the viable cells leading to the formation of formazan (Boehringer Mannheim, Meylan, France). These tests are carried out in duplicate with 8 determinations per tested concentration. For each compound to be tested, the values included in the linear part of the sigmoid were retained for linear regression analysis and used in order to estimate the inhibitory concentration IC50. The products are solubilized in dimethylsulphoxide (DMSO) at 10^−2 M and finally used in culture with 0.1% DMSO.

[2] = test system: LNCaP (human prostate cancer cells); assay: Anti-proliferative activity on LNCaP cell line (WST1 colorimetric test); settings: treated for 96 hours, read-out: IC50 on the cell proliferation of the LNCaP lines
Procedure: as §1

[3] = test system: A2058 (human melanoma cancer cells); assay: Anti-proliferative activity on A2058 cell line (WST1 colorimetric test); settings: treated for 96 hours, read-out: IC50 on the cell proliferation of the A2058 lines
Procedure: as §1

N[C@@H](CSSC[C@H](N)C(=O)N1CCn2nc(-c3ccccc3)cc2C1CC1CCCCC1)C(=O)N1CCn2nc(-c3ccccc3)cc2C1CC1CCCCC1 (mixture of isomers) [Example 12, (2R)-3-({(2R)-2-amino-3-[(4RS)-4-(cyclohexylmethyl)-2-phenyl-6,7-dihydropyrazolo[1,5-a]pyrazin-5(4H)-yl]-3-oxopropyl}dithio)-1-[(4RS)-4-(cyclohexylmethyl)-2-phenyl-6,7-dihydropyrazolo[1,5-a]pyrazin-5(4H)-yl]-1-oxopropan-2-amine hydrochloride]
IC50 [1]: ≤ 10 µM | IC50 [2]: ≤ 1 µM | IC50 ([3]; bound given in mM): ≤ 0.01 mM

N[C@@H](CSSC[C@H](N)C(=O)N1CCn2nc(-c3ccccc3)cc2C1CCc1ccccc1)C(=O)N1CCn2nc(-c3ccccc3)cc2C1CCc1ccccc1 (mixture of isomers) [Example 13, (2R)-3-({(2R)-2-amino-3-oxo-3-[(4RS)-2-phenyl-4-(2-phenylethyl)-6,7-dihydropyrazolo[1,5-a]pyrazin-5(4H)-yl]propyl}dithio)-1-oxo-1-[(4RS)-2-phenyl-4-(2-phenylethyl)-6,7-dihydropyrazolo[1,5-a]pyrazin-5(4H)-yl]propan-2-amine hydrochloride]
IC50 ([1]; unit inferred): ≤ 15 µM | IC50 [2]: ≤ 1 µM | IC50 ([3]; bound given in mM): ≤ 0.01 mM

N[C@@H](CSSC[C@H](N)C(=O)N1CCn2nc(-c3ccc4c(c3)OCO4)cc2C1CCc1ccccc1)C(=O)N1CCn2nc(-c3ccc4c(c3)OCO4)cc2C1CCc1ccccc1 (mixture of isomers) [Example 16, (2R)-3-({(2R)-2-amino-3-[(4RS)-2-(1,3-benzodioxol-5-yl)-4-(2-phenylethyl)-6,7-dihydropyrazolo[1,5-a]pyrazin-5(4H)-yl]-3-oxopropyl}dithio)-1-[(4RS)-2-(1,3-benzodioxol-5-yl)-4-(2-phenylethyl)-6,7-dihydropyrazolo[1,5-a]pyrazin-5(4H)-yl]-1-oxopropan-2-amine hydrochloride]
IC50 [1]: ≤ 20 µM | IC50 [2]: ≤ 10 µM | IC50 [3]: ≤ 0.03 mM

COc1cc(-c2cc3n(n2)CCN(C(=O)[C@@H](N)CSSC[C@H](N)C(=O)N2CCn4nc(-c5cc(OC)c(OC)c(OC)c5)cc4C2CCc2ccccc2)C3CCc2ccccc2)cc(OC)c1OC (mixture of isomers) [Example 17, (2R)-3-({(2R)-2-amino-3-oxo-3-[(4RS)-4-(2-phenylethyl)-2-(3,4,5-trimethoxyphenyl)-6,7-dihydropyrazolo[1,5-a]pyrazin-5(4H)-yl]propyl}dithio)-1-oxo-1-[(4RS)-4-(2-phenylethyl)-2-(3,4,5-trimethoxyphenyl)-6,7-dihydropyrazolo[1,5-a]pyrazin-5(4H)-yl]propan-2-amine hydrochloride]
IC50 ([1]; unit inferred): ≤ 15 µM | IC50 [2]: ≤ 10 µM | IC50 [3]: ≤ 0.02 mM

N[C@@H](CSSC[C@H](N)C(=O)N1CCn2nc(-c3cccs3)cc2C1CCc1ccccc1)C(=O)N1CCn2nc(-c3cccs3)cc2C1CCc1ccccc1 (mixture of isomers) [Example 18, (2R)-3-({(2R)-2-amino-3-oxo-3-[(4RS)-4-(2-phenylethyl)-2-(2-thienyl)-6,7-dihydropyrazolo[1,5-a]pyrazin-5(4H)-yl]propyl}dithio)-1-oxo-1-[(4RS)-4-(2-phenylethyl)-2-(2-thienyl)-6,7-dihydropyrazolo[1,5-a]pyrazin-5(4H)-yl]propan-2-amine hydrochloride]
IC50 ([1]; unit inferred): ≤ 15 µM | IC50 [2]: ≤ 5 µM | IC50 [3]: ≤ 0.02 mM

N[C@@H](CSSC[C@H](N)C(=O)N1CCn2nc(-c3ccco3)cc2C1CCc1ccccc1)C(=O)N1CCn2nc(-c3ccco3)cc2C1CCc1ccccc1 (mixture of isomers) [Example 19, (2R)-3-({(2R)-2-amino-3-[(4RS)-2-(2-furyl)-4-(2-phenylethyl)-6,7-dihydropyrazolo[1,5-a]pyrazin-5(4H)-yl]-3-oxopropyl}dithio)-1-[(4RS)-2-(2-furyl)-4-(2-phenylethyl)-6,7-dihydropyrazolo[1,5-a]pyrazin-5(4H)-yl]-1-oxopropan-2-amine hydrochloride]
IC50 ([1]; unit inferred): ≤ 15 µM | IC50 [2]: ≤ 5 µM | IC50 [3]: ≤ 0.02 mM

CCCCCC1c2cc(-c3ccccc3)nn2CCN1C(=O)[C@@H](N)CSSC[C@H](N)C(=O)N1CCn2nc(-c3ccccc3)cc2C1CCCCC (mixture of isomers) [Example 20, (2R)-3-({(2R)-2-amino-3-oxo-3-[(4RS)-4-pentyl-2-phenyl-6,7-dihydropyrazolo[1,5-a]pyrazin-5(4H)-yl]propyl}dithio)-1-oxo-1-[(4RS)-4-pentyl-2-phenyl-6,7-dihydropyrazolo[1,5-a]pyrazin-5(4H)-yl]propan-2-amine hydrochloride]
IC50 ([1]; unit inferred): ≤ 15 µM | IC50 [2]: ≤ 10 µM | IC50 ([3]; bound given in mM): ≤ 0.01 mM

CCCCC1c2cc(-c3ccccc3)nn2CCN1C(=O)[C@@H](N)CSSC[C@H](N)C(=O)N1CCn2nc(-c3ccccc3)cc2C1CCCC (mixture of isomers) [Example 21, (2R)-3-({(2R)-2-amino-3-[(4RS)-4-butyl-2-phenyl-6,7-dihydropyrazolo[1,5-a]pyrazin-5(4H)-yl]-3-oxopropyl}dithio)-1-[(4RS)-4-butyl-2-phenyl-6,7-dihydropyrazolo[1,5-a]pyrazin-5(4H)-yl]-1-oxopropan-2-amine hydrochloride]
IC50 [1]: ≤ 20 µM | IC50 [2]: ≤ 5 µM | IC50 ([3]; bound given in mM): ≤ 0.01 mM

N[C@@H](CSSC[C@H](N)C(=O)N1CCn2nc(-c3ccc(Cl)cc3Cl)cc2C1CCc1ccccc1)C(=O)N1CCn2nc(-c3ccc(Cl)cc3Cl)cc2C1CCc1ccccc1 (mixture of isomers) [Example 22, (2R)-3-({(2R)-2-amino-3-[(4RS)-2-(2,4-dichlorophenyl)-4-(2-phenylethyl)-6,7-dihydropyrazolo[1,5-a]pyrazin-5(4H)-yl]-3-oxopropyl}dithio)-1-[(4RS)-2-(2,4-dichlorophenyl)-4-(2-phenylethyl)-6,7-dihydropyrazolo[1,5-a]pyrazin-5(4H)-yl]-1-oxopropan-2-amine hydrochloride]
IC50 [1]: ≤ 20 µM | IC50 [2]: ≤ 1 µM | IC50 ([3]; bound given in mM): ≤ 0.01 mM

N[C@@H](CSSC[C@H](N)C(=O)N1CCn2nc(-c3ccccc3)cc2[C@@H]1CC1CCCCC1)C(=O)N1CCn2nc(-c3ccccc3)cc2[C@@H]1CC1CCCCC1 [Example 24, (2R)-3-({(2R)-2-amino-3-[(4S)-4-(cyclohexylmethyl)-2-phenyl-6,7-dihydropyrazolo[1,5-a]pyrazin-5(4H)-yl]-3-oxopropyl}dithio)-1-[(4S)-4-(cyclohexylmethyl)-2-phenyl-6,7-dihydropyrazolo[1,5-a]pyrazin-5(4H)-yl]-1-oxopropan-2-amine hydrochloride]
IC50 ([1]; unit inferred): ≤ 15 µM | IC50 [2]: ≤ 1 µM | IC50 ([3]; bound given in mM): ≤ 0.01 mM

Source: patent publication US20100222332A1, “PYRAZOLO-PYRAZINES DERIVATIVES USED AS G PROTEIN INHIBITORS” (Ipsen Pharma S.A.S., priority 2007, published 2010)
